According to patent US12240844B2 (Voronoi, Inc., priority 2019, dated 2025):

Legend:
[1] = molecular target: T1, human GST-DYRK1A (full length) (Homo sapiens, UniProt Q13627); assay: GST-DYRK1A enzyme inhibition, ADP-Glo kinase assay; format: biochemical; conditions: read-out: DYRK1 IC50
T1 construct: purified human GST-DYRK1A (full length, Thermo scientifics) enzyme; GST; purchased Thermo scientifics
In short: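 Full-length human GST-DYRK1A (10 ng) incubated with 10 uM ATP and specific substrate for 1 h at 25° C in 40 mM Tris-HCl pH 7.4, 20 mM MgCl2, 0.5 mg/mL BSA, 50 uM DTT. ADP formation read by ADP-Glo luminescence; IC50 (nM) versus solvent control, triplicate.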

MDA-MB-468 cell line = assay: MDA-MB-468 cancer cell proliferation inhibition (Cell Titer-Glo); format: cell-based; conditions: Homo sapiens, MDA-MB-468 triple-negative breast cancer cell line, 72 hours
Method: In order to evaluate the cancer cell proliferation inhibitory activity of the compounds of the present invention, the following experiments were performed.
To evaluate the cancer cell proliferation inhibitory effect, the cell growth rate analysis was performed while culturing MDA-MB-231 cell line (Korean Cell Line Bank #30026) and MDA-MB-468 cell line as the triple-negative breast cancer cell line, and SHP-77 (ATCC #CRL-2195) as the small cell lung cancer cell line in DMEM (HyClone #SH30243) and RPMI medium (HyClone #SH3027.01), respectively. More specifically, the cell lines were each plated at 2000 cells/100 μl in each well of a 96-well flat-bottom plate (coming #3903), and then the example compounds having eleven concentrations which were diluted by ⅓ so that the final concentrations were 10.000000, 3.333333, 1.111111, 0.370370, 0.123457, 0.041152, 0.013717, 0.004572, 0.001524, 0.000508 and 0.000169 μM were treated. After 72 hours, 100 μl of Cell Titer-Glo (Promega G7573) was treated, incubated at RT for 10 minutes, and then luminescence was measured using a microplate reader. The measured luminescence degree was calculated as GI50 using Prism (version 8.2 GraphPad) software.
In the table below, the following designations were used for the evaluation of proliferation inhibitory activity.

human GST-CLK1 (129-end) = molecular target: T2, human GST-CLK1 (129-end) (Homo sapiens, UniProt P49759); assay: GST-CLK1 enzyme inhibition, ADP-Glo kinase assay; format: biochemical; conditions: ATP 10 uM
T2 construct: purified human GST-CLK1 (129-end, Signalchem) enzyme; GST; purchased Signalchem
T2 sequence (P49759 129-484 limits assumed): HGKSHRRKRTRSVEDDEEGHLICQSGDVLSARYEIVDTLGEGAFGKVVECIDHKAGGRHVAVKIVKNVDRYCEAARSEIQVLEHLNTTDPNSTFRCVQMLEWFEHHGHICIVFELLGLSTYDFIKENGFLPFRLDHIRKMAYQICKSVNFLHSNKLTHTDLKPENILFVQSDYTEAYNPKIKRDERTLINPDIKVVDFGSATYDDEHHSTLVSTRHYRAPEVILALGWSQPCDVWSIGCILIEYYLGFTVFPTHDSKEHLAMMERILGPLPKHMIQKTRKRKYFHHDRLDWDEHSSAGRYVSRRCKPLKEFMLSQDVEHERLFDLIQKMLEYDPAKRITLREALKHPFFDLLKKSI
In short: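 GST-CLK1 (129-end, 3 ng) reacted with 10 uM ATP and substrate in 40 mM Tris-HCl pH 7.4, 20 mM MgCl2, 0.5 mg/mL BSA, 50 uM DTT, 1 h at 25° C. ADP-Glo luminescence normalised to solvent control; IC50 from triplicate data.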

SHP-77 = SHP-77 cancer cell proliferation inhibition (Cell Titer-Glo); format: cell-based; conditions: Homo sapiens, SHP77, SHP-77 small cell lung cancer cell line, 72 hours
In short: (§1)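 GI50 comes from CellTiter-Glo luminescence, read 10 min after reagent addition at RT, following 72 h compound treatment. Eleven concentrations were used (⅓ steps, highest 10 μM final) on 2000 cells/well. MDA-MB-231 and MDA-MB-468 were grown in DMEM, SHP-77 in RPMI.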

MDA-MB-231 cell line = assay: MDA-MB-231 cancer cell proliferation inhibition (Cell Titer-Glo); format: cell-based; conditions: Homo sapiens, MDA-MB-231 triple-negative breast cancer cell line, 72 hours
In short: as §1

LRRK2 (G2019S) = LRRK2 (G2019S) (Homo sapiens, UniProt Q5S007, G2019S); assay: LRRK2 G2019S enzyme inhibition, ADP-Glo kinase assay; format: biochemical; parameters: purchased SignalChem L10-12GG
Sequence of LRRK2 (G2019S) (Q5S007 970-2527 G2019S limits assumed): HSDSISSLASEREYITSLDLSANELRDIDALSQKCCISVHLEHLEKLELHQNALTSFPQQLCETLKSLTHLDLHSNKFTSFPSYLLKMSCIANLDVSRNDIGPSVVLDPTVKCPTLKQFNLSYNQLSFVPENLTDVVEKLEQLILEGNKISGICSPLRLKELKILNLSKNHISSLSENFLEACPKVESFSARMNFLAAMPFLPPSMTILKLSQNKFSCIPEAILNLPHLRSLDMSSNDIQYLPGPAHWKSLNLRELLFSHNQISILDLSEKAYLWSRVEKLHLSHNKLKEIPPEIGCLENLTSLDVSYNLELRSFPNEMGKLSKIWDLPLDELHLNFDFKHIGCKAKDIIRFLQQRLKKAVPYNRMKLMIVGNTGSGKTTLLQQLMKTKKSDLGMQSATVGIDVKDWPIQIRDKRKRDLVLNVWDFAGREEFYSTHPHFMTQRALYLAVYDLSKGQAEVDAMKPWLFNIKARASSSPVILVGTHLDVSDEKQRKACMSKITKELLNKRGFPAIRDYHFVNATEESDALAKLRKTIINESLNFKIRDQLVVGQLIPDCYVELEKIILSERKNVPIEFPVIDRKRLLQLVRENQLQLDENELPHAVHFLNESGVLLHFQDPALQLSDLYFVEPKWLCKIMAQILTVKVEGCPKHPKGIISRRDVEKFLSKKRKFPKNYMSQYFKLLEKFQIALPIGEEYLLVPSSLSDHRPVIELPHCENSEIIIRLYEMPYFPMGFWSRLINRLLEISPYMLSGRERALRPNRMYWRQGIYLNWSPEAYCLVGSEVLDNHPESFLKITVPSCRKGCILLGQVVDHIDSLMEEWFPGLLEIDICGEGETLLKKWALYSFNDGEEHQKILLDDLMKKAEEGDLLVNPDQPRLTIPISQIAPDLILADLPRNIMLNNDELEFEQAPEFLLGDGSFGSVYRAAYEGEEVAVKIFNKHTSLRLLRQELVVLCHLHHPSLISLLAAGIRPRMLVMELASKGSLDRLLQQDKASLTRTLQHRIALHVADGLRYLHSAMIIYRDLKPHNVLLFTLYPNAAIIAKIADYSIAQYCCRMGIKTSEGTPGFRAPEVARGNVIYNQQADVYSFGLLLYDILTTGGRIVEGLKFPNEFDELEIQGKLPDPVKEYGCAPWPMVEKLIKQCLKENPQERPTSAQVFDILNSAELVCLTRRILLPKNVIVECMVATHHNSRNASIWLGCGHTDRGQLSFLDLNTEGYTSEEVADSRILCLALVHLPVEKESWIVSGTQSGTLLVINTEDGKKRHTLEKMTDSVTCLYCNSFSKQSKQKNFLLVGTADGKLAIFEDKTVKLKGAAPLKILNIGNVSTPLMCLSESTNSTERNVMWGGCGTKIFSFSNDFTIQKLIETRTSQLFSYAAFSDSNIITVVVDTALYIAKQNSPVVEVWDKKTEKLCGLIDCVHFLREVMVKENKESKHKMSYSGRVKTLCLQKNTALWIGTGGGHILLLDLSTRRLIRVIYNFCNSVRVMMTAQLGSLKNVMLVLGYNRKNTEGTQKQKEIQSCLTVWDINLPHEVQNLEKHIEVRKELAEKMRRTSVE
In short: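 Purified human LRRK2 G2019S (16 ng) with 25 μM ATP and 0.2 μg substrate, 2 h at 25° C in 40 mM Tris-HCl pH 7.4, 20 mM MgCl2, 0.5 mg/ml BSA, 50 μM DTT; compound at 12 final concentrations from 50 μM downward. ADP-Glo luminescence versus solvent control gave IC50 (nM).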

TNF-α = TNF-α secretion inhibition in LPS-treated THP-1 cells (ELISA); format: cell-based; conditions: Homo sapiens, compound 0.5 μM, LPS 500 ng/ml, 24 hours, read-out: THP-1/TNF-a (% inhib)
Method: (§2) In order to evaluate the cytokine secretion inhibitory efficacy of mononuclear cells, THP-1 cells (ATCC, #TIB-202) as a human-derived monocyte cell line were cultured in RPMI-1640 (Hyclone, SH30027.01) media in which 10% fetal bovine serum (Hyclone, SH30084.03), 1% penicillin streptomycin (Welgene, LS202-02) and 50 μM 2-Mercaptoethanol (Gibco, #21985023) were contained. In the test, 1.5-2×10^5 cells/250 μl per each well were dispensed in a 48-well plate (SPL, #30048) and incubated in an incubator at 37° C. and 5% CO2 for 16 hours, and then the compounds were diluted in DMSO so that the final concentration was 0.5 μM. It was treated with Lipopolysaccharides (LPS) (sigma, #L6529) […]. After treatment with the compound, the LPS was treated so that the final concentration was 500 ng/ml, and then the cell culture fluid was collected after culturing for 24 hours, and the degrees of the cytokines IL-6 (R&D system, #D6050) and TNF-α (R&D system, #DTA00D) contained in the culture fluid were collected using each ELISA kit. After performing the experiment according to the manufacturer's instructions, the absorbance at 450 nm was measured and analyzed using a microplate reader.

LRRK2 = LRRK2 (Homo sapiens, UniProt Q5S007); assay: LRRK2 enzyme inhibition, ADP-Glo kinase assay; format: biochemical; parameters: purchased Invitrogen PR8604B
Sequence of LRRK2 (Q5S007 970-2527 limits assumed): as the sequence (Q5S007 970-2527 G2019S limits assumed) above, with S1050G counted along it
In short: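 Purified human LRRK2 (25 ng) in 40 mM Tris-HCl pH7.4, 20 mM MgCl2, 0.5 mg/ml BSA, 50 μM DTT with 10 μM ATP and substrate ([…]), 2 h at 25° C. Final compound 50 to 0.000001024 μM, 12-point dilution. ADP-Glo luminescence vs solvent control; IC50 (nM).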

THP-1 = THP-1 GI50 (Table 4, method not given); format: cell-based; conditions: Homo sapiens; THP-1 cells
IL-6 = IL-6 secretion inhibition in LPS-treated THP-1 cells (ELISA); format: cell-based; conditions: Homo sapiens, compound 0.5 μM, LPS 500 ng/ml, 24 hours, read-out: THP1/IL6 (% inhib)
Method: as §2

Row | IC50 [1] [nM] | GI50 (MDA-MB-468 cell line) [nM] | IC50 (human GST-CLK1 (129-end)) [nM] | GI50 (SHP-77) [nM] | GI50 (MDA-MB-231 cell line) [nM] | IC50 (LRRK2 (G2019S)) [nM] | IC50 (LRRK2) [nM] | GI50 (THP-1) [nM] | Structure (SMILES) | inhibition at 0.5 µM (TNF-α) [%] | inhibition at 0.5 µM (IL-6) [%]
1 | 301 to 1000 | 101 to 300 | 301 to 1000 | 51 to 100 | 51 to 100 | – | – | – | COc1cc(S(=O)(=O)N2CCC(N3CCOCC3)CC2)ccc1Nc1cc(NC2CCCCC2)c2c(C#N)c[nH]c2n1 [Example 151, N^4-(cyclohexylamino)-N^6-((2-methoxy-4-((4-morpholinopiperidin-1-yl)sulfonyl)phenyl)amino)-1H-pyrrolo[2,3-b]pyridine-3-carbonitrile] | – | –
2 | < 100 | – | < 100 | – | – | 101 to 300 | < 100 | 14400 | CCNc1cc(Nc2ccc(C(=O)N3CCOCC3)c3c2OCCO3)nc2[nH]cc(C(F)(F)F)c12 [Example 153, (8-((4-(ethylamino)-3-(trifluoromethyl)-1H-pyrrolo[2,3-b]pyridin-6-yl)amino)-2,3-dihydrobenzo[b] [1,4]dioxin-5-yl)(morpholino) methanone] | 40.4 | 32.7
3 | < 100 | 101 to 300 | < 100 | – | – | < 100 | < 100 | – | CNc1cc(Nc2ccc(C(=O)N3CCOCC3)c3c2OCCO3)nc2[nH]cc(C(F)(F)F)c12 [Example 152, (8-((4-(methylamino)-3-(trifluoromethyl)-1H-pyrrolo[2,3-b]pyridin-6-yl)amino)-2,3-dihydrobenzo [b] [1,4]dioxin-5-yl)(morpholino) methanone] | – | –
4 | 301 to 1000 | 51 to 100 | 301 to 1000 | – | – | < 100 | < 100 | – | N#Cc1c[nH]c2nc(Nc3ccc(C(=O)N4CCOCC4)c4c3OCCO4)cc(NC3CCCC3)c12 [Example 112, 4-(cyclopentylamino)-6-((8-(morpholine-4-carbonyl)-2,3-dihydrobenzo[b] [1,4]dioxin-5-yl)amino)-1H-pyrrolo[2,3-b]pyridine-3-carbonitrile] | – | –
5 | 301 to 1000 | 101 to 300 | 301 to 1000 | – | – | – | – | – | N#Cc1c[nH]c2nc(Nc3ccc(C(=O)N4CCC(N5CCOCC5)CC4)c4c3OCCO4)cc(NC3CCCCC3)c12 [Example 149, 4-(cyclohexylamino)-6-((8-(4-morpholinopiperidine-1-carbonyl)-2,3-dihydrobenzo [b] [1,4]dioxin-5-yl)amino)-1H-pyrrolo[2,3-b]pyridine-3-carbonitrile] | – | –
6 | 301 to 1000 | 51 to 100 | 301 to 1000 | – | – | – | – | – | N#Cc1c[nH]c2nc(Nc3ccc(C(=O)N4CCOCC4)c4c3OCCO4)cc(NC3CCCCC3)c12 [Example 150, N^4-(cyclohexylamino)-N^6-((8-(morpholine-4-carbonyl)-2,3-dihydrobenzo [b] [1,4]dioxin-5-yl)amino)-1H-pyrrolo[2,3-b]pyridine-3-carbonitrile] | – | –
